Holding throughout (type): binding, mouse
The test system of one experiment is IgM (G 19-2). Nature of the experiment: inhibition ELISA: oligosaccharide inhibits fixation of IgM G19-2 on LPS 3a. The note with it: for IC50: concentration of oligosaccharide giving 50% inhibition of fixation of the mAb on LPS 3a (S. flexneri 3a), inhibition ELISA; for recognition by the mIgM antibody (and by the mIgGs): summary in words of tables 1 and 2, interaction weaker than with the mIgGs. The method, then:
Protocol 2) Ten Balb/C mice and four BP2 mice were immunized by i.p. injection with virulent live bacteria of the strain S. flexneri 3a, every three weeks, using 2×10^6 bacteria for the first 2 immunizations and 5×10^6 for the next 4. As the anti-LPS 3a antibody response was too weak for performing cellular fusion, an additional series of 4 injections was carried out. Two mAbs of type IgM, G19-2 and L18-9, were obtained.
(§1) The oligosaccharide determinants recognized by the four mAbs obtained were characterized by measuring, by inhibition ELISA, the interaction of the various oligosaccharides synthesized with these mAbs.
(§2) 1) First, a standard curve OD=f(concentration of the mAb) was established for each antibody.
(§3) For this, purified LPS from S. flexneri 3a was fixed in the wells of ELISA plates (96-well plate), at a concentration of 25 μg/ml in a carbonate buffer pH 9.6, at 4° C., overnight.
(§4) After washing the wells with a solution of PBS/ Tween 20 (0.05%) 1% and a stage of saturation with PBS/BSA 1% for 30 minutes at 4° C., various concentrations of each mAb were incubated for 30 minutes at 4° C. After a washing stage, a secondary antibody coupled to alkaline phosphatase and specific to the mouse IgGs or IgMs was added at a dilution of 1/5000 (Sigma-Aldrich) for 1 h at 37° C. After washing, the enzymatic reaction was carried out with the specific substrate of alkaline phosphatase (12 mg of p-nitrophenylphosphate in 1.2 ml of Tris-HCl buffer 1M (pH 8.8) and 10.8 ml of 5M NaCl). Once the color reaction had developed, the plates were read at 405 nm (Dynatech MR 4000 plate reader). The standard curve OD =f(Ab concentration) was refined with the equation Y=aX2+bX+c, where Y corresponds to the OD and X to the antibody concentration. A correlation factor (r2) of 0.99 was generally obtained.
(§5) 2) The concentration of oligosaccharide capable of inhibiting 50% of the fixation of the mAb on LPS 3a was then determined as follows.
(§6) Each mAb was used at a given concentration, defined as the first concentration tested giving a maximum OD on the standard curve (the first point at the start of the plateau of the curve). Various concentrations of each of the oligosaccharides to be tested were then incubated separately with the mAb at constant concentration, overnight at 4° C., in 1% PBS-BSA buffer. Measurement of the free antibody concentration was carried out as stated above, after incubation of the mAb/oligosaccharide mixtures at 4° C. for 30 minutes on plates covered with LPS 3a and using the standard curve obtained in parallel on the same plate. For each mAb and each oligosaccharide, a value called IC50 was then calculated, corresponding to the concentration of oligosaccharide permitting 50% inhibition of the fixation of the mAb on LPS 3a.

The test system of a further experiment is mIgG C7-37. Briefly: inhibition ELISA: oligosaccharide inhibits fixation of mIgG C7-37 on LPS 3a. Particulars: concentration of oligosaccharide giving 50% inhibition of fixation of the mAb on LPS 3a (S. flexneri 3a). The procedure:
as §1, §2, §3, §4, §5, §6
For orientation: ELISA stands for enzyme-linked immunosorbent assay.

The test system of another experiment is mIgG G7-12. Briefly: inhibition ELISA: oligosaccharide inhibits fixation of mIgG G7-12 on LPS 3a. The note with it: concentration of oligosaccharide giving 50% inhibition of fixation of the mAb on LPS 3a (S. flexneri 3a). The method, then: as §1, §2, §3, §4, §5, §6

Structures are written as SMILES.

Usually IC50 stands for the midpoint of a concentration-inhibition curve. Read a low IC50 as higher potency. For `CCCO[C@@H]1OC(C)[C@H](O)[C@H](O[C@H]2O[C@@H](CO)[C@@H](O)C(O)C2O)C1O[C@@H]1OC(CO)[C@@H](O)C(O)[C@@H]1NC(C)=O` (stereo partly drawn), the IC50 is over 2500 µM in the experiment with IgM (G 19-2), over 5000 µM in the experiment on mIgG C7-37 and over 2500 µM in the experiment on mIgG G7-12.

With `CCCO[C@@H]1OC(C)[C@H](O)C(O)C1O[C@@H]1OC(C)[C@H](O)C(O[C@H]2OC(CO)[C@@H](O)C(O)C2O)C1O[C@@H]1OC(CO)[C@@H](O)C(O[C@@H]2OC(C)[C@H](O)C(O[C@@H]3OC(C)[C@H](O)C(O)C3O)C2OC(C)=O)C1NC(C)=O` (stereo partly drawn) [BC(2-OAc)D(E)AB-OPr, Propyl α-L-rhamnopyranosyl-(1→3)-(2-O-acetyl-α-L-rhamnopyranosyl)-(1→3)-(2-acetamido-2-deoxy-β-D-glucopyranosyl)-(1→2)-[α-D-glucopyranosyl-(1→3)]-α-L-rhamnopyranosyl-(1→2)-α-L-rhamnopyranoside], the concentration for half-maximal inhibition (IC50) in the experiment on IgM (G 19-2) was 2200 µM; in the experiment on mIgG C7-37 it was 230 µM; in the experiment on mIgG G7-12, 205 µM. For the same compound, in the experiment with IgM (G 19-2), the “recognition by the mIgM antibody (and by the mIgGs)” value (shortened to “recognition by the mIgM antibody”) was “recognized”.

For `CCCO[C@@H]1OC(C)[C@H](O)C(O[C@H]2OC(CO)[C@@H](O)C(O)C2O)C1O[C@@H]1OC(CO)[C@@H](O)C(O[C@@H]2OC(C)[C@H](O)C(O[C@@H]3OC(C)[C@H](O)C(O)C3O)C2O)C1NC(C)=O` (stereo partly drawn) [BCDEA-Opr, Propyl α-L-rhamnopyranosyl-(1→3)-α-L-rhamnopyranosyl-(1→3)-(2-acetamido-2-deoxy-β-D-glucopyranosyl)-(1→2)-[α-D-glucopyranosyl-(1→3)]-α-L-rhamnopyranoside], the 50% inhibitory concentration (IC50) with IgM (G 19-2) was over 2500 µM; in the experiment with mIgG C7-37, over 1000 µM; in the experiment with mIgG G7-12 it was over 2500 µM.

Turning to `CCCO[C@@H]1OC(C)[C@H](O)C(O[C@H]2OC(CO)[C@@H](O)C(O)C2O)C1O[C@@H]1OC(CO)[C@@H](O)C(O[C@@H]2OC(C)[C@H](O)C(O[C@@H]3OC(C)[C@H](O)C(O)C3O)C2OC(C)=O)C1NC(C)=O` (stereo partly drawn) [BCDEA-Opr-Oac, Propyl α-L-rhamnopyranosyl-(1→3)-(2-O-acetyl-α-L-rhamnopyranosyl)-(1→3)-(2-acetamido-2-deoxy-β-D-glucopyranosyl)-(1→2)-[α-D-glucopyranosyl-(1→3)]-α-L-rhamnopyranoside], the IC50 in the experiment on IgM (G 19-2) was 1980 µM; with mIgG C7-37, 195 µM; in the experiment with mIgG G7-12, 175 µM. Moreover, in the experiment with IgM (G 19-2), the “recognition by the mIgM antibody” value was “recognized”.

With `CCCO[C@@H]1OC(C)[C@H](O)C(O)C1O[C@@H]1OC(C)[C@H](O)C(O[C@H]2OC(CO)[C@@H](O)C(O)C2O)C1O[C@@H]1OC(CO)[C@@H](O)C(O[C@@H]2OC(C)[C@H](O)C(O[C@@H]3OC(C)[C@H](O)C(O)C3O)C2O)C1NC(C)=O` (stereo partly drawn) [BCDEAB-Opr], the IC50 in the experiment on IgM (G 19-2) is over 2500 µM; with mIgG C7-37, over 5000 µM; in the experiment on mIgG G7-12 it was over 2500 µM.

Turning to `CCCO[C@@H]1OC(C)[C@H](O)C(O)C1O[C@@H]1OC(C)[C@H](O)C(O[C@H]2OC(CO)[C@@H](O)C(O)C2O)C1O[C@@H]1OC(CO)[C@@H](O)C(O[C@@H]2OC(C)[C@H](O)C(O)C2OC(C)=O)C1NC(C)=O` (stereo partly drawn) [C(2,3-OAc)D(E)AB-OPr, Propyl (2-O-acetyl-α-L-rhamnopyranosyl)-(1→3)-(2-acetamido-2-deoxy-β-D-glucopyranosyl)-(1→2)-[α-D-glucopyranosyl-(1→3)]-α-L-rhamnopyranosyl-(1→2)-α-L-rhamnoyranoside], the half-inhibitory concentration (IC50) is over 2500 µM with IgM (G 19-2), over 5000 µM with mIgG C7-37 and over 2500 µM with mIgG G7-12.

Regarding `CCCO[C@@H]1O[C@@H](C)[C@H](O)[C@@H](O)[C@H]1O[C@@H]1O[C@@H](C)[C@H](O)[C@@H](O[C@H]2O[C@H](CO)[C@@H](O)[C@H](O)[C@H]2O)[C@H]1O[C@@H]1O[C@H](CO)[C@@H](O)[C@H](O)[C@H]1NC(C)=O` [DEAB-OPr, Propyl 2-acetamido-2-deoxy-β-D-glucopyranosyl-(1→2)-[α-D-glucopyranosyl-(1→3)]-α-L-rhamnopyranosyl-(1→2)-α-L-rhamnopyranoside], the IC50 was over 2500 µM in the experiment with IgM (G 19-2), over 5000 µM in the experiment with mIgG C7-37 and over 2500 µM in the experiment with mIgG G7-12.

`CCCO[C@@H]1O[C@@H](C)[C@H](O)[C@@H](O[C@@H]2O[C@@H](C)[C@H](O)[C@@H](O)[C@H]2O[C@@H]2O[C@@H](C)[C@H](O)[C@@H](O[C@H]3O[C@H](CO)[C@@H](O)[C@H](O)[C@H]3O)[C@H]2O[C@@H]2O[C@H](CO)[C@@H](O)[C@H](O)[C@H]2NC(C)=O)[C@H]1OC(C)=O` [DEABC(2-OAc)-OPr, Propyl (2-acetamido-2-deoxy-β-D-glucopyranosyl)-(1→2)-[α-D-glucopyranosyl-(1→3)]-α-L-rhamnopyranosyl-(1→2)-α-L-rhamnopyranosyl-(1→3)-2-O-acetyl-α-rhamnopyranoside]: the concentration for half-maximal inhibition (IC50) with IgM (G 19-2) and in the experiment on mIgG G7-12 was over 2500 µM each time.

On to `CCCO[C@@H]1O[C@@H](C)[C@H](O)[C@@H](O[C@@H]2O[C@@H](C)[C@H](O)[C@@H](O)[C@H]2O[C@@H]2O[C@@H](C)[C@H](O)[C@@H](O[C@H]3O[C@H](CO)[C@@H](O)[C@H](O)[C@H]3O)[C@H]2O[C@@H]2O[C@H](CO)[C@@H](O)[C@H](O)[C@H]2NC(C)=O)[C@H]1O` [DEABC)-OPr, Propyl (2-acetamido-2-deoxy-β-D-glucopyranosyl)-(1→2)-[α-D-glucopyranosyl-(1→3)]-α-L-rhamnopyranosyl-(1→2)-α-L-rhamnopyranosyl-(1→3)-α-L-rhamnopyranoside], for which the results for the concentration for half-maximal inhibition (IC50) in the experiment on IgM (G 19-2), in the experiment on mIgG C7-37 and in the experiment with mIgG G7-12 were over 2500 µM, over 5000 µM and over 2500 µM, respectively.

As to `CCCO[C@@H]1O[C@@H](C)[C@H](O)[C@@H](O[C@H]2O[C@H](CO)[C@@H](O)[C@H](O)[C@H]2O)[C@H]1O` [EA-OPr, Propyl α-D-glucopyranosyl- (1→3)-α-L-rhamnopyranoside], the IC50 with IgM (G 19-2) was over 2500 µM; in the experiment on mIgG C7-37, over 5000 µM; with mIgG G7-12, over 2500 µM.

Turning to `CCCO[C@@H]1O[C@@H](C)[C@H](O)[C@@H](O)[C@H]1O[C@@H]1O[C@@H](C)[C@H](O)[C@@H](O[C@H]2O[C@H](CO)[C@@H](O)[C@H](O)[C@H]2O)[C@H]1O` [EAB-OPr, Propyl α-D-glucopyranosyl-(1→3)-α-L-rhamnopyranosyl-(1→2)-α-L-rhamnopyranoside], the IC50 in the experiment with IgM (G 19-2) was over 2500 µM; with mIgG C7-37, over 5000 µM; in the experiment with mIgG G7-12, over 2500 µM.

In the case of `CCCO[C@@H]1O[C@@H](C)[C@H](O)[C@@H](O[C@@H]2O[C@@H](C)[C@H](O)[C@@H](O)[C@H]2O[C@@H]2O[C@@H](C)[C@H](O)[C@@H](O[C@H]3O[C@H](CO)[C@@H](O)[C@H](O)[C@H]3O)[C@H]2O)[C@H]1OC(C)=O` [EABC(2-OAc)-OPr, Propyl α-D-glucopyranosyl-(1→3)-α-L-rhamnopyranosyl-(1→2)-α-L-rhamnopyranosyl-(1→3)-2-O-acetyl-α-L-rhamnopyranoside], the half-inhibitory concentration (IC50) was found to be 1430 µM in the experiment with IgM (G 19-2), 410 µM in the experiment with mIgG C7-37 and 450 µM in the experiment on mIgG G7-12. Also, the “recognition by the mIgM antibody” value in the experiment with IgM (G 19-2) was “recognized”.

Regarding `CCCO[C@@H]1OC(CO)[C@@H](O)C(O[C@@H]2OC(C)[C@H](O)C(O[C@@H]3OC(C)[C@H](O)C(O)C3O[C@@H]3OC(C)[C@H](O)C(O[C@H]4OC(CO)[C@@H](O)C(O)C4O)C3O)C2OC(C)=O)C1NC(C)=O` (stereo partly drawn) [EABC(2-OAc)D-OPr, Propyl α-D-glucopyranosyl-(1→3)-α-L-rhamnopyranosyl-(1→2)-α-L-rhamnopyranosyl-(1→3)-(2-O-acetyl-α-L-rhamnopyranosyl)-(1→3)-2-acetamido-2-deoxy-β-D-glucopyranoside], the IC50 with IgM (G 19-2) was found to be 1280 µM; with mIgG C7-37 it was 280 µM; in the experiment on mIgG G7-12, 315 µM. Further, the “recognition by the mIgM antibody” value in the experiment on IgM (G 19-2) is “recognized”.

As to `CCCO[C@@H]1O[C@@H](C)[C@H](O)[C@@H](O[C@@H]2O[C@@H](C)[C@H](O)[C@@H](O)[C@H]2O[C@@H]2O[C@@H](C)[C@H](O)[C@@H](O[C@H]3O[C@H](CO)[C@@H](O)[C@H](O)[C@H]3O)[C@H]2O)[C@H]1O` [EABC-Opr, Propyl α-D-glucopyranosyl-(1→3)-α-L-rhamnopyranosyl-(1→2)-α-L-rhamnopyranosyl-(1→3)-α-L-rhamnopyranoside], the IC50 in the experiment with IgM (G 19-2) is over 2500 µM; in the experiment with mIgG C7-37, over 5000 µM; in the experiment with mIgG G7-12 it was over 2500 µM.

The values are drawn from patent publication US10087242B2 (INSTITUT PASTEUR, priority 2007, dated 2018).
